Experimental findings from patent publication US8076266B2, “Urea phosphite fungicide” (Lidochem, Inc., priority 2004, dated 2011) are described below.

In data set [1] the test system is Downey Mildew fungus on lettuce. The note with it: in vivo.
The format of data set [2] is physicochemical. From the text: […]. 55 grams phosphorous acid crystals were blended with 42 grams urea pills and stirred in a covered container at room temperature. […].

For `NC(N)=O.OP(O)O` [Urea Phosphite], in data set [1], the “Downey mildew rating, Mean of 4 Replications” value (shortened to “Downey mildew rating, Mean”) worked out at 3.93; the Pathological acerbation result is recorded as “no indication of pathological acerbation”; the Ranking was 1.
Consider Urea Phosphite [Example 4], for which the “Stability of liquid on heating / cooling” value in data set [2] is “stable upon heating to 90 °C and crystals formed upon cooling”.
For “potassium phosphite [1 (potassium phosphite)]”, in data set [1], the “Downey mildew rating, Mean” value is reported as 4.62 and the Ranking was determined as 3.
As to “potassium phosphite [2 (potassium phosphite)]”, in data set [1], the “Downey mildew rating, Mean” value came to 4.81 and the Ranking amounted to 4.
Regarding urea phosphite [Example 2], the “Stability of liquid on heating / cooling” value in data set [2] is “stable upon heating to 90 °C or cooling to 0 °C”.
